In paper PMC5064019, “Nicotinamide is an endogenous agonist for a C. elegans TRPV OSM-9 and OCR-4 channel” (Nature Communications, 2016):

Legend:
OSM-9–OCR-4 TRPV channel = target: T1, OSM-9–OCR-4 TRPV channel (Caenorhabditis elegans, UniProt G5EBV8+Q9N3Y9); assay: two-electrode voltage clamp, Xenopus oocytes, Hill fit; assay type: cell-based; conditions: read-out: K1/2
T1 construct: untagged cDNAs (osm-9 in pGEMHE, ocr-4 in pOX); cRNAs co-injected in Xenopus oocytes; heterotetramer, likely 2:2
T1 sequence (G5EBV8 1-937): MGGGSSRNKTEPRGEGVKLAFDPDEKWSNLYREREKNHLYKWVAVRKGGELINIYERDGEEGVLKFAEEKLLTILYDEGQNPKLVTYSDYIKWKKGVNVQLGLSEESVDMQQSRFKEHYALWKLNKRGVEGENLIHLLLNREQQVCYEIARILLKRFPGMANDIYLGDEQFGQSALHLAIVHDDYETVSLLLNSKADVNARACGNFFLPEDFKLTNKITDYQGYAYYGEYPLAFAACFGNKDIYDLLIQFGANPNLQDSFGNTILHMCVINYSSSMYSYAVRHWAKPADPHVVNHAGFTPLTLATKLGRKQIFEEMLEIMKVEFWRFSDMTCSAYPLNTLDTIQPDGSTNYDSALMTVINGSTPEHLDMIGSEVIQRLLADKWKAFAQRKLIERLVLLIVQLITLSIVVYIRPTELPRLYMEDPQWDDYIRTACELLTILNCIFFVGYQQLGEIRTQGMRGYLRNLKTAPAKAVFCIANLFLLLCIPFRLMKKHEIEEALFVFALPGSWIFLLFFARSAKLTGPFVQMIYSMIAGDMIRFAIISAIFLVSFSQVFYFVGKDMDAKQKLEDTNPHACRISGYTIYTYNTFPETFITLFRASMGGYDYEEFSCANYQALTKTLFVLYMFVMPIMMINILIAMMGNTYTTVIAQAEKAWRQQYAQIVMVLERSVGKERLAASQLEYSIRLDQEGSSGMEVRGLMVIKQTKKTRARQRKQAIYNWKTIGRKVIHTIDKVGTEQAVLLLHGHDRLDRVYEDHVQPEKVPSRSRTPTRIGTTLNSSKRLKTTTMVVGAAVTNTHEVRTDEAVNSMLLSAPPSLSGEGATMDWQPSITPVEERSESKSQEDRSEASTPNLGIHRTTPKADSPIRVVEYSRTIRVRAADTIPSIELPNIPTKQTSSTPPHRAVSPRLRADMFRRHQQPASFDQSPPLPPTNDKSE
T1 sequence (Q9N3Y9 1-756): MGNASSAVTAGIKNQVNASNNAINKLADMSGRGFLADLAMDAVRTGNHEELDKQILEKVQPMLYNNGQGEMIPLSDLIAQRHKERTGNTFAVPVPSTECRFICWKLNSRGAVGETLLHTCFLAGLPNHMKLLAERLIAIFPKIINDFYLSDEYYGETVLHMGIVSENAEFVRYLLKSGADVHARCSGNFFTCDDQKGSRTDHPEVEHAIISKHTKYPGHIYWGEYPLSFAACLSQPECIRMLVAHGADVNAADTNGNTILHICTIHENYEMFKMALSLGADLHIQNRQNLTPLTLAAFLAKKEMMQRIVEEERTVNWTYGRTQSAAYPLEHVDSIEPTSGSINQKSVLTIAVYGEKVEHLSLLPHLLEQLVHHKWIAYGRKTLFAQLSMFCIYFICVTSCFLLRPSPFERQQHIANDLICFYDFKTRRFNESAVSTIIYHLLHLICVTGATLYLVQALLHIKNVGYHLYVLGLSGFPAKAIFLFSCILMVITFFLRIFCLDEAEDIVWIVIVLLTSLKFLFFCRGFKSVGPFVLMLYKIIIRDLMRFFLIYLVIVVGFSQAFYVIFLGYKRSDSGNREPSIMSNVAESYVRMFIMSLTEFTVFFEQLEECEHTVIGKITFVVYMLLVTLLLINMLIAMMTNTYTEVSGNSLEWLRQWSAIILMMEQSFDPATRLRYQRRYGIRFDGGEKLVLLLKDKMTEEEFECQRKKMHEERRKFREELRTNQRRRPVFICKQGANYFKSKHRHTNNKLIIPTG

Nan–Iav TRPV channel = target: T2, Nan–Iav TRPV channel (Drosophila melanogaster, UniProt Q9VUD5+Q9W3W0); assay: as above; assay type: cell-based; conditions: read-out: K1/2
T2 construct: iav cDNA in pCR4-TOPO, synthesized nan cDNA in pcDNA3.1; cRNAs co-injected in Xenopus oocytes; heteromeric channel
T2 sequence (Q9VUD5 1-833): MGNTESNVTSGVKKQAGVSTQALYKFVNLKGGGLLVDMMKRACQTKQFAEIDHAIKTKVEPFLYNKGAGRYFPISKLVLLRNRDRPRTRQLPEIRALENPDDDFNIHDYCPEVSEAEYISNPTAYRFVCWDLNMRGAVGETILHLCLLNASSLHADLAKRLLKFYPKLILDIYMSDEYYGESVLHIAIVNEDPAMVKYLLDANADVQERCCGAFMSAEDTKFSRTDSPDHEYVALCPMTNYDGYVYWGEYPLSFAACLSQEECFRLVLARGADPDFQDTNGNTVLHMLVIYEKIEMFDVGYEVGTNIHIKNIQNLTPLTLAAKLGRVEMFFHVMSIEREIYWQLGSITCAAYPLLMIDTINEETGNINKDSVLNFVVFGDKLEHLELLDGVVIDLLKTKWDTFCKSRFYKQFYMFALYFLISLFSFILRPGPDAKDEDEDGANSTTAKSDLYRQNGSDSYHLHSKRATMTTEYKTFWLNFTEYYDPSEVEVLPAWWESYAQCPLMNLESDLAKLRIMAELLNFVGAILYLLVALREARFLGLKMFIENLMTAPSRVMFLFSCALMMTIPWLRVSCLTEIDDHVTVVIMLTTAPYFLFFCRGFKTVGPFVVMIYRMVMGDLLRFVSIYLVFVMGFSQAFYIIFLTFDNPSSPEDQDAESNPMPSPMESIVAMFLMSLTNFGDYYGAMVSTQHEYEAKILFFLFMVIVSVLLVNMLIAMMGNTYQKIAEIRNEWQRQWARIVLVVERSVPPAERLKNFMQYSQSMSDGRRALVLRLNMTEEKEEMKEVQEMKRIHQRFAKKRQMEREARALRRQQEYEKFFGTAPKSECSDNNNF
T2 sequence (Q9W3W0 1-1123): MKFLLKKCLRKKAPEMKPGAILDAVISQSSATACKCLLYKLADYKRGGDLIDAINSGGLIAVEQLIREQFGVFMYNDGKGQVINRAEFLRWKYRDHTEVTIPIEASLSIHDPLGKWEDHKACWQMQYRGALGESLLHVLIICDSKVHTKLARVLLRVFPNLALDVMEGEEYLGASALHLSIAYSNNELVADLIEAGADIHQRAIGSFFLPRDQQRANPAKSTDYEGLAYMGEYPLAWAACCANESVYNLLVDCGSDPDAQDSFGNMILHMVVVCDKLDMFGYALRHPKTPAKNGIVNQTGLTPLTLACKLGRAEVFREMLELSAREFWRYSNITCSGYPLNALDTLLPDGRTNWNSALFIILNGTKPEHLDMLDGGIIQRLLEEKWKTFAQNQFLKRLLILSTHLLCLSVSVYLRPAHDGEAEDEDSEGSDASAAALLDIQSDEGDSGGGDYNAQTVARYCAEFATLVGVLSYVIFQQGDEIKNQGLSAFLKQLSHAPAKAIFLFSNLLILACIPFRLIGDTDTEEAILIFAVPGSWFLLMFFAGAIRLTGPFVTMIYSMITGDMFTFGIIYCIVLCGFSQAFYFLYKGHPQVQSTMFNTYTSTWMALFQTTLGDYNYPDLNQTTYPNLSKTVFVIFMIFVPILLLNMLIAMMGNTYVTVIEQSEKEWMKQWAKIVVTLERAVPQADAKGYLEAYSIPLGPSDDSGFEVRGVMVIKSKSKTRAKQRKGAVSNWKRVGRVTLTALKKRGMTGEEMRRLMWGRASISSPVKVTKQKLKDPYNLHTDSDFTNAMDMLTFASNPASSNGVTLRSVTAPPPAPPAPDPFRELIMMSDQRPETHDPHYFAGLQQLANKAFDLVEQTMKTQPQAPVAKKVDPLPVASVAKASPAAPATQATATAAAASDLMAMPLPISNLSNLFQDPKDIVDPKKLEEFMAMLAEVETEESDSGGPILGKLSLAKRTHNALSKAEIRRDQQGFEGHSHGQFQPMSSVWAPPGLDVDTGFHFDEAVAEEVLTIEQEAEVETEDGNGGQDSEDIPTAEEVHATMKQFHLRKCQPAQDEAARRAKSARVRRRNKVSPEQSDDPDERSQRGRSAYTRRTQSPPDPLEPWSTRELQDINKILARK

NC(=O)c1cccnc1 [nicotinamide]
EC50 (OSM-9–OCR-4 TRPV channel): 63.3 ± 13.2 µM | EC50 (Nan–Iav TRPV channel): 14.4 ± 1 µM
